Experimental findings from BindingDB's records for PubMed 9067310 (Institut De Recherches Servier, 1997) are described below.

pKi: −log10 of the molar value.

For orientation: pKi means the Ki on a negative log10 scale, so that one unit is a factor of ten. A lower pKi goes with a high Ki.

Assay [1] concerns the target T1, 5-hydroxytryptamine receptor 1A (Homo sapiens, UniProt P08908).
T1 sequence (P08908 whole entry): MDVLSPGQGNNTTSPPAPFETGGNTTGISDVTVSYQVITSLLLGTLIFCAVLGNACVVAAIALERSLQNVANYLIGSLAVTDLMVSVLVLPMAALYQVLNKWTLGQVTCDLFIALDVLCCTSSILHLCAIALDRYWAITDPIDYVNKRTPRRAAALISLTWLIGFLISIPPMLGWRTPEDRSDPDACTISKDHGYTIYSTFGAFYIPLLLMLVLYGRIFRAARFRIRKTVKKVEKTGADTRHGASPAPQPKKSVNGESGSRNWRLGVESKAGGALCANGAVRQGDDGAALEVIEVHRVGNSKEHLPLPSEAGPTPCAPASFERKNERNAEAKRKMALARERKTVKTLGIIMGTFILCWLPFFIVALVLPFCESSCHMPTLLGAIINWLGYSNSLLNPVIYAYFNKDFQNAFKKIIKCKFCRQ

A further assay deals with D(2) dopamine receptor (Homo sapiens, UniProt P14416).
Chain of D(2) dopamine receptor (P14416 whole entry): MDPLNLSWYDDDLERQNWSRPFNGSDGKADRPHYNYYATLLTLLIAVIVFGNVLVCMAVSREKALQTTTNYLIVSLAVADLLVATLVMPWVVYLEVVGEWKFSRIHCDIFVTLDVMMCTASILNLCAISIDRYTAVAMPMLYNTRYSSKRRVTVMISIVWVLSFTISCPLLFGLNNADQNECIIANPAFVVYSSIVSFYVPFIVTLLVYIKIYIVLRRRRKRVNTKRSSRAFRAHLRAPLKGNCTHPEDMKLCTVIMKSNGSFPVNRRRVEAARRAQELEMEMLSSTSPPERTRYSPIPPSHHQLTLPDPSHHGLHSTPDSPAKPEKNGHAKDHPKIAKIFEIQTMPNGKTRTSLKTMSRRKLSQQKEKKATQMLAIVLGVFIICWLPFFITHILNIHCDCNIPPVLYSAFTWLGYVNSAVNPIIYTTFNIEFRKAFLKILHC

For `CCCN(CCC)C1CCc2ccc(O)cc2C1` (stereo not drawn), the pKi in assay [1] is 6.58.
In the case of `CC(C)(C)NCC(O)COc1cccc2c1SCCC2` (single isomer, unassigned; (-)) [TERTATOLOL(-)], the values for the pKi (in assay [1]; on D(2) dopamine receptor) were 8.17 and < 5.00, respectively.
